Results taken from US6737383B1, “Herbicidal oxadiazolidines” (priority 1999, dated 2004).

Key:
[1] = test system: velvetleaf; assay: Test B pre/postemergence velvetleaf; format: in vivo, Abutilon theophrasti
How it was run: (§1)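 Herbicidal effect was estimated by eye on a ten-point control scale after plants spent twelve to sixteen days in a greenhouse following soil or foliar treatment. Foliar sprays targeted plants at one to four leaves; all doses were formulated in a non-phytotoxic solvent with surfactant.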

[2] = test system: crabgrass; assay: Test B pre/postemergence crabgrass; format: in vivo, Digitaria sanguinalis
How it was run: as §1

[3] = test system: bamyardgrass; assay: Test B flood test barnyardgrass; format: in vivo, Echinochloa crus-galli
How it was run: (§2)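 Plants were grown to the 2-leaf stage before treatment with test chemical, then held in a greenhouse for twelve to sixteen days. Injury was visually rated against untreated controls on a 0–10 scale, where 0 is no effect and 10 is complete control.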

[4] = test system: soybean; assay: Test B pre/postemergence soybean; format: in vivo, Glycine max
How it was run: as §1

[5] = test system: rice; assay: Test B flood test rice; format: in vivo, Oryza sativa
How it was run: as §2

[6] = test system: blackgrass; assay: Test B pre/postemergence blackgrass; format: in vivo, Alopecurus myosuroides
How it was run: as §1

[7] = test system: purple nutsedge; assay: Test B pre/postemergence purple nutsedge; format: in vivo, Cyperus rotundus
How it was run: as §1

[8] = test system: pigweed; assay: Test B pre/postemergence pigweed; format: in vivo, Amaranthus retroflexus
How it was run: as §1

[9] = test system: giant foxtail; assay: Test B pre/postemergence giant foxtail; format: in vivo, Setaria faberii
How it was run: as §1

[10] = test system: wild oat; assay: Test B pre/postemergence wild oat; format: in vivo, Avena fatua
How it was run: as §1

[11] = test system: corn; assay: Test B pre/postemergence corn; format: in vivo, Zea mays
How it was run: as §1

[12] = test system: smallflower flatsedge; assay: Test B flood test smallflower flatsedge; format: in vivo, Cyperus difformis
How it was run: as §2

[13] = test system: surinam grass; assay: Test B pre/postemergence surinam grass; format: in vivo, Brachiaria decumbens
How it was run: as §1

[14] = test system: cocklebur; assay: Test B pre/postemergence cocklebur; format: in vivo, Xanthium strumarium
How it was run: as §1

[15] = test system: sugar beet; assay: Test B pre/postemergence sugar beet; format: in vivo, Beta vulgaris
How it was run: as §1

[16] = test system: bedstraw; assay: Test B pre/postemergence bedstraw; format: in vivo, Galium aparine
How it was run: as §1

[17] = Preemergence, Rate 31 g/ha, visual rating, scale 0 to 10 (0 no effect, 10 complete control)
[18] = Preemergence, Rate 62 g/ha, scale of 0 to 10 where 0 is no effect and 10 is complete control
[19] = Preemergence, Rate 250 g/ha, scale of 0 to 10 where 0 is no effect and 10 is complete control
[20] = Rate 62 g/ha, Postemergence, scale of 0 to 10 where 0 is no effect and 10 is complete control
[21] = Rate 125 g/ha, Postemergence, scale 0 to 10
[22] = Rate 125 g/ha, Preemergence, scale of 0 to 10 where 0 is no effect and 10 is complete control
[23] = Rate 31 g/ha, Postemergence, scale 0 to 10
[24] = Rate 31 g/ha, Pre-emergence section (flood test species), scale 0 to 10
[25] = Rate 62 g/ha, headed Pre-emergence (flood test species), scale 0 to 10 (0 no effect, 10 complete control)
[26] = Rate 125 g/ha, Pre-emergence, flood test species, scale 0 to 10 where 0 is no effect and 10 is complete control
[27] = Rate 250 g/ha, Pre-emergence, flood-test species, scale 0 to 10, 0 is no effect, 10 is complete control

CC(=O)Cn1c(=O)on(C(=O)N(c2ccc(F)cc2)C(C)C)c1=O [Compound 217]
Velvetleaf plant response rating [1, 17]: 0
Velvetleaf plant response rating [1, 18]: 0
Velvetleaf plant response rating [1, 19]: 5
Velvetleaf plant response rating [1, 20]: 0
Velvetleaf plant response rating [1, 21]: 0
Velvetleaf plant response rating [1, 22]: 1
Plant response rating (0 to 10; 0 is no effect, 10 is complete control), Velvetleaf ([1]; Rate 250 g/ha, Postemergence): 0
Crabgrass plant response rating [2, 17]: 0
Crabgrass plant response rating [2, 18]: 3
Crabgrass plant response rating [2, 19]: 8
Crabgrass plant response rating [2, 23]: 0
Crabgrass plant response rating [2, 20]: 0
Crabgrass plant response rating [2, 21]: 2
Crabgrass plant response rating [2, 22]: 4
Plant response rating (0 to 10; 0 is no effect, 10 is complete control), Crabgrass ([2]; Rate 250 g/ha, Postemergence): 3
Barnyardgrass plant response rating [3, 24]: 0
Barnyardgrass plant response rating [3, 25]: 0
Barnyardgrass plant response rating [3, 26]: 0
Barnyardgrass plant response rating [3, 27]: 0
Soybean plant response rating [4, 17]: 0
Soybean plant response rating [4, 18]: 0
Soybean plant response rating [4, 19]: 0
Soybean plant response rating [4, 20]: 1
Soybean plant response rating [4, 21]: 1
Soybean plant response rating [4, 22]: 0
Plant response rating (0 to 10; 0 is no effect, 10 is complete control), Soybean ([4]; Rate 250 g/ha, Postemergence): 1
Rice plant response rating [5, 24]: 0
Rice plant response rating [5, 25]: 0
Rice plant response rating [5, 26]: 0
Rice plant response rating [5, 27]: 0
Blackgrass plant response rating [6, 17]: 0
Blackgrass plant response rating [6, 18]: 6
Blackgrass plant response rating [6, 19]: 8
Blackgrass plant response rating [6, 23]: 0
Blackgrass plant response rating [6, 20]: 3
Blackgrass plant response rating [6, 21]: 6
Blackgrass plant response rating [6, 22]: 6
Plant response rating (0 to 10; 0 is no effect, 10 is complete control), Blackgrass ([6]; Rate 250 g/ha, Postemergence): 6
Nutsedge plant response rating [7, 17]: 0
Nutsedge plant response rating [7, 18]: 0
Nutsedge plant response rating [7, 19]: 0
Nutsedge plant response rating [7, 23]: 0
Nutsedge plant response rating [7, 20]: 0
Nutsedge plant response rating [7, 21]: 0
Nutsedge plant response rating [7, 22]: 0
Plant response rating (0 to 10; 0 is no effect, 10 is complete control), Nutsedge ([7]; Rate 250 g/ha, Postemergence): 0
Redroot pigweed plant response rating [8, 17]: 0
Redroot pigweed plant response rating [8, 18]: 0
Redroot pigweed plant response rating [8, 19]: 10
Redroot pigweed plant response rating [8, 23]: 0
Redroot pigweed plant response rating [8, 20]: 0
Redroot pigweed plant response rating [8, 21]: 0
Redroot pigweed plant response rating [8, 22]: 5
Plant response rating (0 to 10; 0 is no effect, 10 is complete control), Redroot pigweed ([8]; Rate 250 g/ha, Postemergence): 0
Giant foxtail plant response rating [9, 17]: 3
Giant foxtail plant response rating [9, 18]: 6
Giant foxtail plant response rating [9, 19]: 10
Giant foxtail plant response rating [9, 23]: 0
Giant foxtail plant response rating [9, 20]: 1
Giant foxtail plant response rating [9, 21]: 2
Giant foxtail plant response rating [9, 22]: 8
Plant response rating (0 to 10; 0 is no effect, 10 is complete control), Giant foxtail ([9]; Rate 250 g/ha, Postemergence): 7
Wild oats plant response rating [10, 17]: 0
Wild oats plant response rating [10, 18]: 0
Wild oats plant response rating [10, 19]: 2
Wild oats plant response rating [10, 20]: 0
Wild oats plant response rating [10, 21]: 0
Wild oats plant response rating [10, 22]: 0
Plant response rating (0 to 10; 0 is no effect, 10 is complete control), Wild oats ([10]; Rate 250 g/ha, Postemergence): 0
Corn plant response rating [11, 17]: 0
Corn plant response rating [11, 18]: 0
Corn plant response rating [11, 19]: 0
Corn plant response rating [11, 23]: 0
Corn plant response rating [11, 20]: 0
Corn plant response rating [11, 21]: 0
Corn plant response rating [11, 22]: 0
Plant response rating (0 to 10; 0 is no effect, 10 is complete control), Corn ([11]; Rate 250 g/ha, Postemergence): 0
S. Flatsedge plant response rating [12, 24]: 0
S. Flatsedge plant response rating [12, 25]: 0
S. Flatsedge plant response rating [12, 26]: 0
S. Flatsedge plant response rating [12, 27]: 0
B. signalgrass plant response rating [13, 17]: 0
B. signalgrass plant response rating [13, 18]: 0
B. signalgrass plant response rating ([13]; Preemergence, Rate 250 g/ha, scale 0 to 10, 0 is no effect, 10 is complete control): 0
B. signalgrass plant response rating [13, 23]: 0
B. signalgrass plant response rating [13, 20]: 0
B. signalgrass plant response rating ([13]; Rate 125 g/ha, Postemergence, scale 0 (no effect) to 10 (complete control)): 7
B. signalgrass plant response rating [13, 22]: 0
Plant response rating (0 to 10; 0 is no effect, 10 is complete control), B. signalgrass ([13]; Rate 250 g/ha, Postemergence): 7
Cocklebur plant response rating [14, 17]: 0
Cocklebur plant response rating [14, 18]: 0
Cocklebur plant response rating [14, 19]: 0
Cocklebur plant response rating [14, 23]: 0
Cocklebur plant response rating [14, 20]: 0
Cocklebur plant response rating [14, 21]: 0
Cocklebur plant response rating [14, 22]: 0
Plant response rating (0 to 10; 0 is no effect, 10 is complete control), Cocklebur ([14]; Rate 250 g/ha, Postemergence): 0
Sugarbeets plant response rating [15, 17]: 0
Sugarbeets plant response rating [15, 18]: 0
Sugarbeets plant response rating [15, 19]: 0
Sugarbeets plant response rating [15, 20]: 0
Sugarbeets plant response rating [15, 21]: 0
Sugarbeets plant response rating [15, 22]: 0
Plant response rating (0 to 10; 0 is no effect, 10 is complete control), Sugarbeets ([15]; Rate 250 g/ha, Postemergence): 0
Bedstraw plant response rating [16, 17]: 0
Bedstraw plant response rating [16, 18]: 0
Bedstraw plant response rating [16, 19]: 0
Bedstraw plant response rating [16, 23]: 0
Bedstraw plant response rating [16, 20]: 0
Bedstraw plant response rating [16, 21]: 0
Bedstraw plant response rating [16, 22]: 0
Plant response rating (0 to 10; 0 is no effect, 10 is complete control), Bedstraw ([16]; Rate 250 g/ha, Postemergence): 0
